According to patent publication US20020165197A1, “Modulation of GSK-3beta activity and its different uses” (priority 2001, published 2002):

What was measured:
GSK-3β = assay: Western blot of GSK-3β (total and phosphorylated) in B16-F10 melanoma cell extracts; format: cell-based
Protocol: (§1) Cells (B16-F10 melanoma cells) were maintained in RPMI medium supplemented with 10% […], 200 mM glutamine, 100 U/ml penicillin and 100 μg/ml streptomycin. They were transferred to a freshly prepared medium twice weekly. For all studies we used serum starved cells. FBS was omitted from the cultures for 18 hours and the experiment was carried out on monolayers of cells in RPMI medium supplemented with 1% FBS in a 37° C., 5% CO2 incubator.
(§2) To detect the level of expression of PKA, GSK-3β (total and phosphorylated), PKB/Akt (total and phosphorylated), β-catenin, c-myc and cyclin D1, protein extract from IB-MECA treated or untreated serum-starved B16-F10 melanoma cells were utilized. […] Further, to mimic the chain of events occurring upon activation of A2R, cells were incubated with 8Br cAMP.
(§3) At the end of the incubation period, cells were rinsed with ice-cold PBS and lysed in ice-cold lysis buffer (TNN buffer, 50 mM tis buffer pH=7.5, 150 mM NaCl, NP 40). Cell debris was removed by centrifugation at 7500×g for 10 min. Supernatant was utilized for Western Blot analysis. Protein concentrations were determined using the Bio-Rad protein assay dye reagent. […] Bands were recorded using BCIP/NBT color development kit (Promega, Madison, Wis., USA). […]

β-catenin = assay: Western blot of tumor tissue from HCT-116 colon carcinoma bearing mice: β-catenin; format: in vivo, Balb/C nude mice; settings: 6 μg/Kg orally every second day, 30 days
Protocol: (§4) A similar series of studies was utilized in a colon carcinoma murine animal model to determine whether elements of the Wnt pathway altered by IB-MECA in vitro, occur as well in viro with Cl-B-MECA (another A3RAg). The animal model was generated by subcutaneous injection of 1.2×10^6HCT-116 human colon carcinoma cells to the flank of Balb/C nude mice. The mice were treated orally (by gavage), every second day with 6 μg/Kg Cl-IB-MECA.
(§5) After 30 days the mice were sacrificed and tissue samples from the colon carcinoma foci were harvested and analyzed for the expression of β-catenin and cyclin D1.

cyclin D1 = assay: Western blot of tumor tissue from HCT-116 colon carcinoma bearing mice: cyclin D1; format: in vivo, Balb/C nude mice; settings: 6 μg/Kg orally every second day, 30 days
Protocol: as §4, §5

c-myc = assay: Western blot of tumor tissue from HCT-116 colon carcinoma bearing mice: c-myc; format: in vivo, Balb/C nude mice; settings: 6 μg/Kg orally every second day, 30 days
hair growth = assay: Hair growth in nude mice inoculated with HCT-116 colon carcinoma cells; format: in vivo, Nude mice (BalbC origin); settings: 6 μg/kg body weight orally daily, 30 days
Protocol: Nude mice (BalbC origin) were subcutaneously inoculated with HCT16 human colon carcinoma cells, which thus developed a visible tumor.
Cl-IB-MECA was dissolved in DMSO and kept as a stock solution. in a concentration of 10 mM. Before administration to the mice, the stock solution was diluted with PBS to a concentration so that each mice received a dosage of 6 μg/kg body weight.
Nude mice (BalbC origin) were subcutaneously inoculated wit HCT-16 human colon carcinoma cells. These mice were divided into two groups:
Study group which was daily and orally administered with Cl-IB-MECA (6 μg/kg body weight) dissolved in DMSO and diluted with PBS.
Control group which was daily and orally administered with DMSO only.

HIV-1 JR-FL = assay: p24 ELISA, HIV replication in JR-FL infected astroglial cells; format: cell-based; settings: Astroglia/JR-FL, 0.01 (μM, every 24 hours); HIV control 22.83
Protocol: (§6) Purified primary human fetal astrocytes and microgial cells were prepared from 16 to 20 week old human fetal brain tissue by a modified procedure based on the methods of Cole and de Vellis [R. Cole and J. de Vellis. In: Protocols for neural cell cure. S. Fedoroff and A. Richardson (Eds.) Human Press, Totowa, N.J., pp. is 117-130. (1997)], and Yong and Antel [V. W. Yong and J. P. Antel. In: Protocols for neural cell culture. S. Fedoroff and A. Richardson (Eds.) Humana Press, Totowa, N.J., pp. 157-172 (1997)]. Brain tissue was washed in ice-cold Hank's Balanced Salt Solution (HBSS) containing the antibiotics gentamycin and arnphotericin B. Blood vessels and meninges were removed and the tissue was minced into small pieces. After mincing, the tissue was enzymatically dissociated by incubation in 0.05% trypsin and mechanically disrupted by passing several times over a 75 μm nylon mesh filter. […]
(§7) Brain derived primary HIV-1 isolates SF162 and JR-FL were cultured in human peripheral blood mononuclear cells (PBMC) essentially as described by Gartner and Popovic^12. […] After stimulation, cells were infected with either SF162 or JR-FL and cultured for 7 to 10 days until high titres of MIV-1 were detected in the supernatant by p24 ELISA assay. […]

HIV-1 SF162 = assay: p24 ELISA, HIV replication in SF162 infected astroglia; format: cell-based; settings: Astroglia/SF-162, 0.01 (μM); HIV control 313.38
Protocol: as §6, §7

HIV-1 SF126 = assay: p24 ELISA, HIV replication in SF infected microglia; format: cell-based
Protocol: Purified primary human fetal astrocytes and microgial cells were prepared from 16 to 20 week old human fetal brain tissue by a modified procedure based on the methods of Cole and de Vellis [R. Cole and J. de Vellis. In: Protocols for neural cell cure. S. Fedoroff and A. Richardson (Eds.) Human Press, Totowa, N.J., pp. is 117-130. (1997)], and Yong and Antel [V. W. Yong and J. P. Antel. In: Protocols for neural cell culture. S. Fedoroff and A. Richardson (Eds.) Humana Press, Totowa, N.J., pp. 157-172 (1997)]. Brain tissue was washed in ice-cold Hank's Balanced Salt Solution (HBSS) containing the antibiotics gentamycin and arnphotericin B. Blood vessels and meninges were removed and the tissue was minced into small pieces. After mincing, the tissue was enzymatically dissociated by incubation in 0.05% trypsin and mechanically disrupted by passing several times over a 75 μm nylon mesh filter. The resulting single cell suspension was washed, pelleted and plated at a density of 2-10×10^6 cells per 162 cm^2 flask in DMEM:F12 containing 10% fetal calf […], gentamycin, and L-glutamine. After 7-10 days of growth, microglial cells were isolated by placement on rotary shaker at 200 rpm in a 37° C. incubator overnight. The non-adherent cells were removed and allowed to attach to a new flask for 1 to 3 h. Following attachment, the cells were washed and refed with media containing 10% fetal calf serum, insulin, gentamycin, L-gluntamine, and N1 supplement. Astocyes were subeultured from adherent cells in media containing 15% fetal calf serum, insulin, gentamycin, and L-glutamine and contaminating microglia were removed by repeated rotary shaking. Cultured astrocytic and nicroglial cells were plated at a density of 2.5×10^5 per well into 6 well plates for subseqent infection.
Brain derived primary HIV-1 isolates SF162 and JR-FL were cultured in human peripheral blood mononuclear cells (PBMC) essentially as described by Gartner and Popovic^12. PBMC were isolated from human buffy coat by ficoll gradient and plated at a density of 2.5×10^6 per ml in RPMI containing 10% fetal calf serum and gentamycin. Cells were stimulated by the addition of 5 μg/ml of phytohemagglutinin (PHA) for 48 h. After stimulation, cells were infected with either SF162 or JR-FL and cultured for 7 to 10 days until high titres of MIV-1 were detected in the supernatant by p24 ELISA assay. When viral production was optimal, the cells were pelleted, the supernatant containing HIV-1 was aliquoted and stored at −70° C. until use. P24 ELISA assay was performed on an aliquot of stock to determine the viral titre.
Microglial or astrocytic cells (2.5×10^5) were plated per well into 6-well plates. The next day, cells were washed and refed with fresh medium. […]

B16-F10 melanoma cells = assay: [3H]-thymidine incorporation cell proliferation assay; format: cell-based; settings: antagonist 0.01 μM added in the presence of IB-MECA
Protocol: as §1
[^3H]-thymidine incorporation assay as used to evaluate cell growth. B136-F10 melanom Cella (1.5×10^4/ml) were incubated with IB-MECA (0.0 μM-10 μM) in 96-well microtiter plates for 24 hours. To test whether IB-MECA exerted its effect on tumor cells through binding to A3AR, an antagonist to A3AR, MRS-1523, was added to the cell cultures in the presence of IB-MECA. Cultures of B16-F10 melanoma cells tat were incubated in the presence of MRS-1523 only, served as controls. For the last 6 h of incubation, each well was pulsed with 1 μCi [3H]-thymidine. Cells were harvested and the [^3H]-thyine uptake was determined in an LKB liquid scintillation counter (LKB, Piscataway, N.J., USA). These experiments were repeated at least 10 times.

PKAc = assay: Western blot of PKAc in B16-F10 melanoma cell extracts; format: cell-based; settings: antagonist 0.01 μM with IB-MECA
Protocol: as §1, §2, §3

Structure (SMILES): Nc1ncnc2c1nc(Br)n2[C@@H]1O[C@@H]2COP(=O)(O)O[C@H]2[C@H]1O [8Br cAMP]
- level of GSK-3β (GSK-3β; 8Br cAMP added to culture to mimic A2AR activation): decrease

Structure (SMILES): CNC(=O)C1OC(n2cnc3c(NCc4cccc(I)c4)nc(Cl)nc32)C(O)C1O (centres unmarked) [Cl-IB-MECA]
- level of β-catenin in tumor tissue (β-catenin): decrease
- level of cyclin D1 in tumor tissue (cyclin D1): decrease
- level of c-myc in tumor tissue (c-myc): decrease
- hair growth on the skin (hair growth): hair grew
- p 24 Day 5 (HIV-1 JR-FL): 8.45 pg/mL
- p 24 Day 5 (HIV-1 SF162): 288.77 pg/mL
- p 24 Day 10 after infection (HIV-1 SF126; 0.01, HIV control 209.18): 111.05 pg/mL
- p 24 Day 5 after infection (HIV-1 SF126; 0.01, HIV control 267.99): 127.03 pg/mL
- p 24 Day 10 after infection (HIV-1 SF126; 0.1, HIV control 209.18): 80.37 pg/mL
- p 24 Day 5 after infection (HIV-1 SF126; 0.1, HIV control 267.99): 10.81 pg/mL

Structure (SMILES): CCCOC(=O)c1c(-c2ccccc2)nc(CC)c(C(=O)SCC)c1CCC [MRS-1523]
- effect on the inhibitory effect of IB-MECA on melanoma cell growth (B16-F10 melanoma cells): reversed the inhibitory effect of IB-MECA
- effect on the IB-MECA induced decrease in PKAc (PKAc): reversed
- effect on the IB-MECA induced increase in GSK-3β levels (GSK-3β; antagonist 0.01 μM with IB-MECA): reversed
